Assay: Storage of aqueous solution or slurry for 60 days: HPLC analysis of components and appearance
Type: physicochemical
Settings: keeping temperature 40° C.

| Structure (SMILES) | Appearance after kept for 60 days | Content of the compound of the formula [I] in aqueous solution after kept for 60 days [wt. %] |
| --- | --- | --- |
| O=C([O-])CN(CC(=O)[O-])c1ccccc1C(=O)[O-].[Fe+3] [compound 42, iron salt of anthranilic acid-N,N-diacetic acid, reference compound] | Blackish brown aqueous solution | 40.6 |

Same assay, conditions: keeping temperature 75° C.

| Structure (SMILES) | Appearance after kept for 60 days | Content of the compound of the formula [I] in aqueous solution after kept for 60 days [wt. %] |
| --- | --- | --- |
| O=C([O-])CC(NCCCNC(CC(=O)[O-])C(=O)[O-])C(=O)[O-].[Na+].[Na+].[Ni+2] [compound 51, nickel disodium (S,S)-1,3-propanediamine-N,N′-disuccinate, reference compound] | Blue transparent aqueous solution | 38.4 |
| O=C([O-])C[C@H](NCC(O)CN[C@@H](CC(=O)[O-])C(=O)[O-])C(=O)[O-].[Cu+2].[Na+].[Na+] [compound 52, copper disodium (S,S)-2-hydroxy-1,3-propanediamine-N,N′-disuccinate, reference compound] | Dark blue transparent aqueous solution | 38.7 |

Now from value to compound:

| Appearance after kept for 60 days | Content of the compound of the formula [I] in aqueous solution after kept for 60 days [wt. %] | Structure (SMILES) |
| --- | --- | --- |
| Colorless transparent aqueous solution | 40.7 | O=C([O-])C[C@H](NCCCN[C@@H](CC(=O)[O-])C(=O)[O-])C(=O)[O-].[Na+].[Na+].[Na+].[Na+] [compound 46, tetrasodium (S,S)-1,3-propanediamine-N,N′-disuccinate, reference compound] |
| Colorless transparent aqueous solution | 41.8 | O=C([O-])C[C@H](NCC(O)CN[C@@H](CC(=O)[O-])C(=O)[O-])C(=O)[O-].[Na+].[Na+].[Na+].[Na+] [compound 47, tetrasodium (S,S)-2-hydroxy-1,3-propanediamine-N,N′-disuccinate, reference compound] |

Assay: as above
Type: physicochemical
Settings: keeping temperature 50° C.
Experimental: (§1) This aqueous solution was kept at 50° C. for 60 days, and, then, the components were analyzed by HPLC and, simultaneously, the appearance of the solution was observed.
as §1
This aqueous solution was kept at 50° C. for 60 days. Then, the components were analyzed by HPLC and, simultaneously, the appearance of the solution was observed.

| Structure (SMILES) | Content of the compound of the formula [I] in aqueous solution after kept for 60 days [wt. %] | Appearance after kept for 60 days |
| --- | --- | --- |
| O=C([O-])CN[C@@H](CC(=O)[O-])C(=O)[O-].[Na+].[Na+].[Na+] [Example 85, trisodium salt of (S)-aspartic acid-N-monoacetic acid] | 35.4 | Light yellow transparent aqueous solution |
| O=C([O-])CCN[C@@H](CC(=O)[O-])C(=O)[O-].[Na+].[Na+].[Na+] [Example 87, trisodium salt of (S)-aspartic acid-N-monopropionic acid] | 37.8 | Light yellow transparent aqueous solution |

Now from value to compound, other results behind:

| Content of the compound of the formula [I] in aqueous solution after kept for 60 days [wt. %] | Structure (SMILES) | Appearance after kept for 60 days |
| --- | --- | --- |
| 36.4 | O=C([O-])C[C@@H](C(=O)[O-])N(CC(=O)[O-])CC(=O)[O-].[Na+].[Na+].[Na+].[Na+] [Example 86, tetrasodium salt of (S)-aspartic acid-N,N-diacetic acid] | Light yellow transparent aqueous solution |
| 36.5 | C[C@@H](C(=O)[O-])N(CC(=O)[O-])CC(=O)[O-].[Na+].[Na+].[Na+] [Example 88, trisodium salt of (S)-α-alanine-N,N-diacetic acid] | Light yellow transparent aqueous solution |
| 34.7 | O=C([O-])CN(CCS(=O)(=O)[O-])CC(=O)[O-].[Na+].[Na+].[Na+] [Example 100, trisodium salt of taurine-N,N-diacetic acid] | Light yellow transparent aqueous solution |
| 36.6 | CN(CC(=O)[O-])CC(=O)[O-].[Na+].[Na+] [Example 101, disodium N-methyliminodiacetate] | Light yellow transparent aqueous solution |

From patent US6426229B1, “Chelating agent and detergent comprising the same” (Mitsubishi Rayon Co., Ltd., priority 1995, dated 2002)
